Measurements taken from patent US20080200405A1, “Drug Resistance Reversal In Neoplastic Disease” (priority 2007, published 2008).
Where a name gives a salt, the structure may show the parent alone.

Key:
TNFα = assay: Measurement of LPS Induced-TNFα in THP-1 Cells; assay type: cell-based, human; details: Homo sapiens, THP-1; read-out: TNFalpha IC50
Protocol: The lipid peroxidation assay method of Ohkawa, H.; Ohishi, N.; Yaki, K. Anal. Biochem. 1979, 95, 351 was used to evaluate […]. […] […] Cells were collected and spun at 1500 g for 10 minutes. Supernatant was collected and analyzed for TNFα.
Mean Percent Inhibition of TNF-alpha by compounds of the present invention is set forth in Table B. TNF-alpha inhibition data is set forth in Table B-1. OT-551 was used in both native form and in the form of nanoparticles. […] Other nitrogenous heterocyclic species of the invention are expected to show similar improvement in efficacy when disposed in nanoparticulate form.

[1] = test system: Doxorubicin resistant SaOS2 cells; assay: Cancer cell viability (MTT) in the presence or absence of doxorubicin; assay type: cell-based, human; details: compound 50 ug/mL, 3 days

IC50 (TNFα) [µM] | SMILES | Mean OD (×10^−3), MTT viability ([1]; Dox. 10^−6 M (+)) | Mean OD (×10^−3), MTT viability ([1]; absence of Dox. (−))
30.9 | CC1(C)C=C(CO)CC(C)(C)N1O.Cl [Compound 25, 1-hydroxy-1,2,3,6-tetrahydro-2,2,6,6-tetramethylpyridin-4-yl)methanol hydrogen chloride] |  | 
≥ 100 | CC1(C)CC(NC(=O)CCN2CCOCC2)CC(C)(C)N1O.Cl [Compound 26, N-(1-hydroxy-2,2,6,6-tetramethylpiperidin-4-yl)-3-morpholinopropanamide hydrogen chloride] | 261.50 ×10^−3 | 1056.33 ×10^−3
≥ 100 | CC1(C)CC(c2nn[nH]n2)CC(C)(C)N1O.Cl [Compound 30, 1-hydroxy-2,2,6,6-tetramethyl-4-(2H-tetrazol-5-yl)piperidine hydrogen chloride] | 310.00 ×10^−3 | 1301.25 ×10^−3
38.2 | CC1(C)CC(NC(=O)C2CC2)CC(C)(C)N1O.Cl [Compound 31, N-(1-hydroxy-2,2,6,6-tetramethylpiperidin-4-yl)cyclopropanecarboxamide hydrogen chloride] | 322.25 ×10^−3 | 1175.25 ×10^−3
≥ 100 | CC1(C)CC(Oc2nsnc2N2CCOCC2)C(C)(C)N1O.Cl (centres unmarked) [Compound 32, 4-(4-(1-hydroxy-2,2,5,5-tetramethylpyrrolidin-3-yloxy)-1,2,5-thiadiazol-3-yl)morpholine hydrogen chloride] | 231.50 ×10^−3 | 985.67 ×10^−3
55.7 | CC1(C)CC(CO)C(C)(C)N1O.Cl (centres unmarked) [Compound 33, 1-hydroxy-2,2,5,5-tetramethylpyrrolidin-3-yl)methanol hydrogen chloride] |  | 
2.4 | CC1(C)CC(CO)CC(C)(C)N1O.Cl [Compound 34, (1-hydroxy-2,2,6,6-tetramethylpiperidin-4-yl)methanol hydrogen chloride] | 302.75 ×10^−3 | 1168.25 ×10^−3
 | COc1cc(COC2CC(C)(C)N(O)C(C)(C)C2)cc(OC)c1OC.Cl [Compound 48, 1-Hydroxyl-4-(3,4,5-trimethoxybenzyloxy)-2,2,6,6-tetramethylpiperidine hydrochloride] | 50.67 ×10^−3 | 1118.00 ×10^−3
 | COc1cc(C2=CC(C)(C)N(O)C(C)(C)C2)cc(OC)c1OC.Cl [Compound 50, 1-Hydroxy-2,3,6-trihydro-4-(3,4,5-trimethoxyphenyl)-2,2,6,6-tetramethylpiperidine hydrochloride] | 54.50 ×10^−3 | 1226.33 ×10^−3
3 | CN1CCN(c2nsnc2OC2CC(C)(C)N(O)C(C)(C)C2)CC1.Cl.Cl [Compound 52, dihydrochloride] |  | 
 | CN1CCN(c2nsnc2OC2CC(C)(C)N(O)C(C)(C)C2)CC1.Cl.Cl [Compound 52] | 195.00 ×10^−3 | 1186.33 ×10^−3
 | CC1(C)CC(Oc2nsnc2N2CCN(c3ccccc3)CC2)CC(C)(C)N1O.Cl.Cl [Compound 53, 4-(4-phenylpiperazin-1-yl)-3-[(2,2,6,6-tetramethyl-1-hydroxypiperidinyl)-4-oxy]-1,2,5-thiadiazole hydrochloride] | 170.00 ×10^−3 | 1333.75 ×10^−3
 | CC1(C)C(CO)=C(c2ccc(F)cc2)C(C)(C)N1O.Cl [Compound 59, (4-(4-fluorophenyl)-1-hydroxy-2,5-dihydro-2,2,5,5-tetramethyl-1H-pyrrol-3-yl)methanol hydrochloride] | 352.00 ×10^−3 | 1105.00 ×10^−3
≥ 100 | CC1(C)c2ccc(N3CCOCC3)cc2C(C)(C)N1O [Compound 66, 2-hydroxy-1,1,3,3-tetramethyl-5-morpholinoisoindoline hydrochloride] |  | 
